Laboratory results reported in PMC7887271, “Fast acting allosteric phosphofructokinase inhibitors block trypanosome glycolysis and cure acute African trypanosomiasis in mice” (Nature Communications, 2021).
Where “and” joins values, the source holds several entries; their conditions need not be identical. Equal entries are not always repeated.

Columns and labels:
TbPFK [1] = target: T1, TbPFK (Trypanosoma brucei brucei, UniProt O15648); test: ALDO/G3PDH/TIM linked enzyme assay for measuring PFK inhibition; assay type: biochemical; parameters: key: absorbance at 340 nm (NADH)
T1 construct: made in house; host or cells: Escherichia coli C41 (pET28a, codon optimised gene)
T1 sequence (O15648 1-487): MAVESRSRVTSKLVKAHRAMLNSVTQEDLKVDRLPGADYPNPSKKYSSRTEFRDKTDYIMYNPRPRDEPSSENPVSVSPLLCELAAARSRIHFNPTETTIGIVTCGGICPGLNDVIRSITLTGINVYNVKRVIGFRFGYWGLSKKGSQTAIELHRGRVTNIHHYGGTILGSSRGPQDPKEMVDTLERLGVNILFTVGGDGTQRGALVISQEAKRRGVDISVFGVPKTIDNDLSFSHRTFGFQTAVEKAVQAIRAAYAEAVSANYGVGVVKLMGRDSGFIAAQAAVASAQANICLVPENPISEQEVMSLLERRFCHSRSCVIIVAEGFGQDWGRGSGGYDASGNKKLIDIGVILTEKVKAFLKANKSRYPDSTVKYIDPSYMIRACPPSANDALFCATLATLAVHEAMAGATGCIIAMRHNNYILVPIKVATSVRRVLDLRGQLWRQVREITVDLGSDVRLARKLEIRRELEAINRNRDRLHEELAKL
Procedure: In the PFK/PYK/LDH assay, the linked PYK activity acts to convert the ADP produced by PFK back to ATP. As ATP is an inhibitor of human PFK (but not TbPFK) at concentrations higher than ~0.5 mM the regeneration of ATP is likely to affect the assay readout. An alternative linked assay was therefore developed using PFK/aldolase (ALDO)/glycerol-3-phosphate dehydrogenase (G3PD)/triosephosphate isomerase (TIM). In this assay F16BP produced by PFK is subsequently converted by aldolase into dihydroxyacetone phosphate (DHAP) and glyceraldehyde 3-phosphate (GA3P). TIM interconverts GA3P and DHAP, and DHAP is reduced to glycerol 3-phosphate by G3PD, alongside the oxidation of NADH to NAD^+, which was measured by observing the change in UV absorbance at 340 nm for 10 minutes at 25° C using a Spectramax© M5 Multimode plate reader.
The assay buffer consisted of 50 mM TEA, 100 mM KCl, 10 mM MgCl2, 10% glycerol, 1 mM Tris(2-carboxyethyl)phosphine (TCEP), pH 7.4. Assay mix consisted of 5 U/ml G3PD (Sigma-Aldrich G6880), 2.5 U/ml ALDO (Sigma-Aldrich A2714), 25 U/ml TIM (Sigma-Aldrich T6258), and 1.25 mM NADH. ATP and F6P were obtained from Sigma-Aldrich (A2383 and F3627, respectively). All ligands and substrates (including ATP) were used at pH 7.4). 40 µl of assay mix, followed by 45 µl assay buffer, 4 µl of 0.1 mg/ml PFK and 1 µl of 100x serially diluted inhibitors were added to a non-binding, clear 96-well plate (Greiner Bio-One 655901) and incubated at RT for 10 minutes. The reaction was started by addition of 10 µl of 6 mM F6P (Supplementary Table 1).

[2] = Human hepatocytes intrinsic clearance; assay type: in vitro ADME
Source text: Methods are described in Supplementary Methods 5 and 6. Enzyme assay results are means ± SD in multiple assays. ADME results are averages of n = 2 or 3 measurements in individual assays.

TbPFK [3] = target: T1, TbPFK; test: Isothermal titration calorimetry (ITC); assay type: binding; details: 25 °C
[4] = Experimentally determined pKa and logP (Pharmorphix); assay type: physicochemical
Procedure: pKa and […] values for selected CTCB compounds were determined experimentally by the company Pharmorphix (www.matthey.com) and calculated pKas were determined using ChemAxon.software (https://chemaxon.com).

[5] = tested on: CYP3A4, CYP2D6, CYP2C9, CYP2C19, CYP1A2; test: Inhibition of CYP450, five isoform panel; assay type: in vitro ADME; details: human, CYP450 isoform inhibition kit (BD Biosciences), 3A4, 2D6, 2C9, 2C19, 1A2, read-out: % inhibition of CYP450 isoforms
Procedure: A HepG2 cytotoxicity assay was used to determine a cellular selectivity index. HepG2 cells were seeded into 96-well plates in EMEM medium. Compounds were assessed for their effect upon cellular viability (Supplementary Methods 5.1). Inhibition of CYP450 was determined using kits from BD Biosciences (Supplementary Methods 5.2). Metabolic stability was determined using mouse […] tested at a single concentration of 5 µM. Plasma protein binding was determined using mouse and human plasma at a single concentration of 10 µM (Supplementary Methods 5.4). All PK studies in mice were carried out by Pharmidex (Supplementary Methods 6.1).
The compounds were investigated for their inhibitory effect on cytochrome P450 (CYP450) activity using five CYP450 isoforms (with fluorescent substrates in brackets): 3A4 (two substrates, BFC and DBF), 2D6 (AMMC), 2C9 (MFC), 2C19 (CEC) and 1A2 (CEC). Kits from BD Biosciences were used along with the method described by the manufacturer. […] Fluorescence was measured using a SpectraMax M5 plate reader.

## CN(C)CCn1ccc2c(ccn2Cc2ccc(Cl)c(Cl)c2)c1=O [CTCB 405]
TbPFK [1]; 0.02 uM CTCB 405, time 0.104167
  TbPFK reaction time course reading (Figure 6a): 0.5676 and 0.5291
TbPFK [1]; 0.02 uM CTCB 405, time 0.121528
  TbPFK reaction time course reading (Figure 6a): 0.545 and 0.5077
TbPFK [1]; 0.02 uM CTCB 405, time 0.138889
  TbPFK reaction time course reading (Figure 6a): 0.5241 and 0.488
TbPFK [1]; 0.02 uM CTCB 405, time 0.15625
  TbPFK reaction time course reading (Figure 6a): 0.5057 and 0.4696
TbPFK [1]; 0.02 uM CTCB 405, time 0.173611
  TbPFK reaction time course reading (Figure 6a): 0.4873 and 0.4524
TbPFK [1]; 0.02 uM CTCB 405, time 0.190972
  TbPFK reaction time course reading (Figure 6a): 0.4705 and 0.4366
TbPFK [1]; 0.05 uM CTCB 405, time 0.104167
  TbPFK reaction time course reading (Figure 6a): 0.6118 and 0.5698
TbPFK [1]; 0.05 uM CTCB 405, time 0.121528
  TbPFK reaction time course reading (Figure 6a): 0.5919 and 0.5511
TbPFK [1]; 0.05 uM CTCB 405, time 0.138889
  TbPFK reaction time course reading (Figure 6a): 0.5731 and 0.5324
TbPFK [1]; 0.05 uM CTCB 405, time 0.15625
  TbPFK reaction time course reading (Figure 6a): 0.5537 and 0.5159
TbPFK [1]; 0.05 uM CTCB 405, time 0.173611
  TbPFK reaction time course reading (Figure 6a): 0.5368 and 0.4994
TbPFK [1]; 0.05 uM CTCB 405, time 0.190972
  TbPFK reaction time course reading (Figure 6a): 0.5212 and 0.4835
TbPFK [1]; 0.43 uM CTCB 405, time 0.104167
  TbPFK reaction time course reading (Figure 6a): 0.7703 and 0.7388
TbPFK [1]; 0.43 uM CTCB 405, time 0.121528
  TbPFK reaction time course reading (Figure 6a): 0.7663 and 0.7359
TbPFK [1]; 0.43 uM CTCB 405, time 0.138889
  TbPFK reaction time course reading (Figure 6a): 0.7635 and 0.7314
TbPFK [1]; 0.43 uM CTCB 405, time 0.15625
  TbPFK reaction time course reading (Figure 6a): 0.7593 and 0.7286
TbPFK [1]; 0.43 uM CTCB 405, time 0.173611
  TbPFK reaction time course reading (Figure 6a): 0.7551 and 0.7249
TbPFK [1]; 0.43 uM CTCB 405, time 0.190972
  TbPFK reaction time course reading (Figure 6a): 0.7517 and 0.7206
TbPFK [1]; 0.43 uM CTCB 405, time 0.208333
  TbPFK reaction time course reading (Figure 6a): 0.7473 and 0.7169
TbPFK [1]; 1.29 uM CTCB 405, time 0.104167
  TbPFK reaction time course reading (Figure 6a): 0.8081 and 0.7679
TbPFK [1]; 1.29 uM CTCB 405, time 0.121528
  TbPFK reaction time course reading (Figure 6a): 0.808 and 0.7688
TbPFK [1]; 1.29 uM CTCB 405, time 0.138889
  TbPFK reaction time course reading (Figure 6a): 0.8069 and 0.768
TbPFK [1]; 1.29 uM CTCB 405, time 0.15625
  TbPFK reaction time course reading (Figure 6a): 0.8064 and 0.7673
TbPFK [1]; 1.29 uM CTCB 405, time 0.173611
  TbPFK reaction time course reading (Figure 6a): 0.8063 and 0.7675
TbPFK [1]; 1.29 uM CTCB 405, time 0.190972
  TbPFK reaction time course reading (Figure 6a): 0.8048 and 0.7672
TbPFK [1]; 3.88 uM CTCB 405, time 0.104167
  TbPFK reaction time course reading (Figure 6a): 0.8165 and 0.7707
TbPFK [1]; 3.88 uM CTCB 405, time 0.121528
  TbPFK reaction time course reading (Figure 6a): 0.8167 and 0.7708
TbPFK [1]; 3.88 uM CTCB 405, time 0.138889
  TbPFK reaction time course reading (Figure 6a): 0.8177 and 0.7708
TbPFK [1]; 3.88 uM CTCB 405, time 0.15625
  TbPFK reaction time course reading (Figure 6a): 0.8174 and 0.7711
TbPFK [1]; 3.88 uM CTCB 405, time 0.173611
  TbPFK reaction time course reading (Figure 6a): 0.8172 and 0.7718
TbPFK [1]; 3.88 uM CTCB 405, time 0.190972
  TbPFK reaction time course reading (Figure 6a): 0.8172 and 0.7712
TbPFK [1]; 11.66 uM CTCB 405, time 0.104167
  TbPFK reaction time course reading (Figure 6a): 0.818 and 0.7732
TbPFK [1]; 11.66 uM CTCB 405, time 0.121528
  TbPFK reaction time course reading (Figure 6a): 0.8194 and 0.7744
TbPFK [1]; 11.66 uM CTCB 405, time 0.138889
  TbPFK reaction time course reading (Figure 6a): 0.8194 and 0.7745
TbPFK [1]; 11.66 uM CTCB 405, time 0.15625
  TbPFK reaction time course reading (Figure 6a): 0.8194 and 0.7742
TbPFK [1]; 11.66 uM CTCB 405, time 0.173611
  TbPFK reaction time course reading (Figure 6a): 0.8203 and 0.7754
TbPFK [1]; 11.66 uM CTCB 405, time 0.190972
  TbPFK reaction time course reading (Figure 6a): 0.82 and 0.776
TbPFK [1]; 35 uM CTCB 405, time 0.104167
  TbPFK reaction time course reading (Figure 6a): 0.7782 and 0.7773
TbPFK [1]; 35 uM CTCB 405, time 0.121528
  TbPFK reaction time course reading (Figure 6a): 0.7782 and 0.776
TbPFK [1]; 35 uM CTCB 405, time 0.138889
  TbPFK reaction time course reading (Figure 6a): 0.7789 and 0.7774
TbPFK [1]; 35 uM CTCB 405, time 0.15625
  TbPFK reaction time course reading (Figure 6a): 0.7788 and 0.7781
TbPFK [1]; 35 uM CTCB 405, time 0.173611
  TbPFK reaction time course reading (Figure 6a): 0.779 and 0.7789
TbPFK [1]; 35 uM CTCB 405, time 0.190972
  TbPFK reaction time course reading (Figure 6a): 0.7794 and 0.7785

## CN(C)CCn1ccc2c(ccn2Cc2ccc(Cl)c(Cl)c2)c1=O [CTCB-405, 1-[(3,4-Dichlorophenyl)methyl]-5-[2-(dimethylamino)ethyl] pyrrolo[3,2-c]pyridin-4-one]
[2]
  Human hepatocytes Clint: 2.3 µL min^−1 per 10^6 cells
TbPFK [3]
  Kd: 92 nM
TbPFK [3]; ITC
  TΔS contribution: -4.03 kcal/mol
  ΔG: -9.57 kcal/mol
  ΔH: -13.6 kcal/mol
[4]; read-out: Measured logP
  logP: 3.29
[4]; read-out: Measured pKa
  pKa: 8.09

## CN(C)CCn1ccc2c(ccn2Cc2ccc(F)c(Br)c2)c1=O [CTCB-508, 1-[(3-Bromo-4-fluorophenyl)methyl]-5-[2-(dimethylamino)ethyl] pyrrolo[3,2-c]pyridin-4-one]
[5]
  inhibition at 10 µM: ≤ 10%
